Results from publication PMC8113725, “Structure–activity relationship of ipglycermide binding to phosphoglycerate mutases” (The Journal of Biological Chemistry, 2021).
Like-named read-outs stand apart in the source and are kept apart here.

Columns and labels:
C. elegans iPGM [1] = molecular target: T1, C. elegans iPGM (Caenorhabditis elegans, UniProt G5EFZ1); assay: PGM enzyme assay (enolase–pyruvate kinase coupled, Kinase-Glo Plus end point) and IC50 determination; assay type: biochemical
D. immitis iPGM = D. immitis iPGM (Dirofilaria immitis, UniProt F4ZE01); assay: biochemical; settings: Di iPGM Ave IC50 (M)
C. elegans iPGM [2] = molecular target: T1, C. elegans iPGM; assay: SPR binding kinetics and saturation binding, biotinylated iPGM on Biotin CAPture chip (Biacore S200)
B. malayi iPGM = molecular target: T2, B. malayi iPGM (Brugia malayi, UniProt Q4VWF8); assay: biochemical; assay type: binding
T2 sequence (Q4VWF8 1-515): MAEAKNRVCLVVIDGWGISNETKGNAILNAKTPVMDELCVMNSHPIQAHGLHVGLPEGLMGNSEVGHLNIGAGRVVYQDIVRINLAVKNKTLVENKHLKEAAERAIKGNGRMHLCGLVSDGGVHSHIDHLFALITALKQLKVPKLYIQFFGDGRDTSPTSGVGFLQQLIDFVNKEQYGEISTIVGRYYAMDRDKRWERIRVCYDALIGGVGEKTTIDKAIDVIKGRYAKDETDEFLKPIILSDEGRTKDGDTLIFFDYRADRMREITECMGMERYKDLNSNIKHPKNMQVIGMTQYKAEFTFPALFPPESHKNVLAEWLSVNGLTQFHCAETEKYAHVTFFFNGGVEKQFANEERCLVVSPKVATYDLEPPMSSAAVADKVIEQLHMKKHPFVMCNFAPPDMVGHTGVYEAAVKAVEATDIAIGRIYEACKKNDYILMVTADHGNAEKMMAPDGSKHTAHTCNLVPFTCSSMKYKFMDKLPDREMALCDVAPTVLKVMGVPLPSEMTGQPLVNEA

E. coli iPGM [3] = molecular target: T3, E. coli iPGM (Escherichia coli, UniProt P37689); assay: SPR binding kinetics and saturation binding, biotinylated iPGM on Biotin CAPture chip (Biacore S200); settings: for koff / kon: LoQ = limit of quantitation
E. coli iPGM [4] = molecular target: T3, E. coli iPGM; assay: biochemical
C. elegans iPGM [5] = molecular target: T1, C. elegans iPGM; settings: read-out: KD, prior estimate; zone boundary analysis from a cross-titration of C. elegans iPGM enzyme versus Ce-2; cited from earlier work
[6] = SPR, 25 °C, global fit to 1:1 binding model
[7] = SPR, Req hyperbolic fit where steady state reached, else koff/kon
[8] = Supplementary Table 5, SPR, E.c. iPGM

## CC(C)C[C@@H]1NC(=O)[C@H](Cc2ccc(O)cc2)NC(=O)[C@H](CS)NC(=O)[C@H](Cc2ccc(O)cc2)NC(=O)[C@H](CC(=O)O)NC(=O)CNC(=O)[C@@H]2CCCN2C(=O)[C@H](Cc2ccc(O)cc2)NC(=O)[C@H](CC(=O)O)NC(=O)[C@@H](Cc2ccc(O)cc2)NC(=O)CSC[C@@H](C(N)=O)NC(=O)[C@H]([C@@H](C)O)NC(=O)CNC(=O)[C@H](Cc2ccc(O)cc2)NC1=O [Ce-2 [Y1-->C14]]
C. elegans iPGM [1]
  inhibitory activity: inactive
D. immitis iPGM
  IC50: 6.52e-06 M

## CC(C)C[C@H](NC(=O)[C@H](Cc1ccc(O)cc1)NC(=O)[C@@H]1CSCC(=O)N[C@H](Cc2ccc(O)cc2)C(=O)N[C@@H](CC(=O)O)C(=O)N[C@@H](Cc2ccc(O)cc2)C(=O)N2CCC[C@H]2C(=O)NCC(=O)N[C@@H](CC(=O)O)C(=O)N[C@@H](Cc2ccc(O)cc2)C(=O)N1)C(=O)N[C@@H](Cc1ccc(O)cc1)C(=O)NCC(=O)N[C@H](C(=O)N[C@@H](CS)C(N)=O)[C@@H](C)O [Ce-2]
C. elegans iPGM [2]
  Kd: 0.0382 nM
  koff: 3.23e-05 s⁻¹
  kon: 1.11e+06 M⁻¹ s⁻¹
C. elegans iPGM [2]; [6]
  koff: 3.2e-05 s⁻¹
  kon: 1.1e+06 M⁻¹ s⁻¹
B. malayi iPGM
  koff: 0.000224 s⁻¹
  kon: 482000 M⁻¹ s⁻¹
B. malayi iPGM; [7]
  Kd: 0.5 nM
B. malayi iPGM; Supplementary Table 5, SPR, B.m. iPGM, unit inferred
  Kd: 0.47 nM
B. malayi iPGM; [6]
  koff: 0.00022 s⁻¹
  kon: 480000 M⁻¹ s⁻¹
E. coli iPGM [3]; SPR, 25 °C, global fit to 1:1 binding model, read-out: koff
  koff: 0.0048 s⁻¹
E. coli iPGM [3]; SPR, 25 °C, global fit to 1:1 binding model, read-out: kon
  kon: 100000 M⁻¹ s⁻¹
E. coli iPGM [3]; [7]
  Kd: ~70 nM
E. coli iPGM [3]; [8]
  koff: 0.00484 s⁻¹
  kon: 102000 M⁻¹ s⁻¹
E. coli iPGM [3]; Supplementary Table 5, SPR, E.c. iPGM, unit inferred
  Kd: 69.2 nM
D. immitis iPGM
  IC50: 8.27e-10 M
E. coli iPGM [4]; IC50
  IC50: > 100 nM
E. coli iPGM [4]; […]
  IC50: 129 nM
C. elegans iPGM [5]
  Kd: 0.07 nM

## CC[C@H](C)[C@H](NC(=O)[C@H](Cc1ccc(O)cc1)NC(=O)[C@@H]1CSCC(=O)N[C@H](Cc2ccc(O)cc2)C(=O)N[C@@H](CC(=O)O)C(=O)N[C@@H](Cc2ccc(O)cc2)C(=O)N2CCC[C@H]2C(=O)NCC(=O)N[C@@H](CC(=O)O)C(=O)N[C@@H](Cc2ccc(O)cc2)C(=O)N1)C(=O)N[C@@H](Cc1ccc(O)cc1)C(N)=O [Ce-2d L10I]
C. elegans iPGM [1]; IC50, text, iPGM ortholog not given, C. elegans by contrast with nematode orthologs
  IC50: 25 nM
D. immitis iPGM
  IC50: 5.03e-07 M
